The source of these data is patent US11267861B2, “Peptide-oligourea foldamer compounds and methods of their use” (UREKA SARL, priority 2016, dated 2022).

The target in one series is T1, human glucagon receptor (Homo sapiens, UniProt P47871).
T1 construct: expressed in transfected cells; host or cells: CHO cells
Put plainly: Glucagon functional assay: agonist activity by cAMP production (HTRF) in transfected CHO cells. In kind it is cell-based. The settings on record: for EC50: cAMP production, transfected CHO cells, 10 minutes at 37° C. As for the experimental part: Functional Assay to Examine Bioactivity of Glucagon Receptor Agonists. Evaluation of the agonist activity of compounds at the human glucagon receptor expressed in transfected CHO cells was examined by measuring their effects on cAMP production using the HTRF detection method. […] For stimulated control measurement, separate assay wells contain 100 nM glucagon were utilized.
Following incubation, the cells were lysed and the fluorescence acceptor (D2-labeled cAMP) and fluorescence donor (anti-cAMP antibody labeled with europium cryptate) were added. […] The results are expressed as a percent of the control response to 100 nM glucagon. The standard reference agonist is glucagon, which was tested in each experiment at several concentrations to generate a concentration-response curve from which its EC50 value was calculated.
HTRF (Homogeneous Time-Resolved Fluorescence) principle. The HTRF technology is based on time resolved fluorescence energy transfer (TR-FRET), which occurs between long-lived fluorophore Europium or Terbium Cryptates, and EuK or Tb respectively, as a donor and the allophycocyanin XL665, d2 or Red as acceptor. Many compounds and proteins present in biological fluids or serum are naturally fluorescent, and the use of conventional, prompt fluorescence leads to serious limitations in assay sensitivity. The use of long-lived fluorophore combined with time-resolved detection (a delay between excitation and emission detection) minimizes prompt fluorescence interference.
On the technique in general: cAMP levels reflect the balance of adenylyl cyclase and phosphodiesterase activity.

Series [1] can be described thus: Solubility of glucagon analogs (UV absorbance).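 For all read-outs here: peptide stock at 3 mg/ml in 0.01 M HCl, absorbance at 280 nm read before neutralization and again on the diluted supernatant after centrifugation.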 In kind it is physicochemical. The settings on record: for solubility: 0.01M HCl solution adjusted to pH 7 with Na2HPO4, pH 7, pH adjusted to 7 with Na2HPO4, incubated overnight at 4° C.; for ratio (solubility relative to reference compound 16): relative to compound 16.
Protocol: A solution of 3 mg/ml of glucagon (or analog) was prepared in a 0.01M HCl solution. Then 0.1 ml of the stock solution was diluted to 1 ml with HCl (0.01M) and the UV absorbance measured (to 280 nm) with nanodrop UV spectrometer. The pH of the remaining stock solution was adjusted to 7 using Na2HPO4, and the solution was incubated overnight at 4° C. The solution was then centrifuged three times (5 minutes, 4000 rotations per minute), 0.1 ml of the supernatant was removed and diluted to 1 ml with HCl solution (0.01M).
The final UV absorbance was measured.

≈ marks a conversion by molar mass, not a printed value. Numbered stars: 1 amine (or outer) side, 2 acyl side, 3 side chain; on linkers, the order of the positions; unused ones are H or OH. Bridge positions count the residues as written; N and C are the ends. Square brackets hold non-standard residues; d marks the D form. Peptide text beside a SMILES is read from it. I, II: the chains in the order shown. X4 = NCCCC[C@@H](CNC(=O)[*:1])N[*:2]; Nle = CCCC[C@H](N)C(=O)O

T1 sequence (P47871 26-477): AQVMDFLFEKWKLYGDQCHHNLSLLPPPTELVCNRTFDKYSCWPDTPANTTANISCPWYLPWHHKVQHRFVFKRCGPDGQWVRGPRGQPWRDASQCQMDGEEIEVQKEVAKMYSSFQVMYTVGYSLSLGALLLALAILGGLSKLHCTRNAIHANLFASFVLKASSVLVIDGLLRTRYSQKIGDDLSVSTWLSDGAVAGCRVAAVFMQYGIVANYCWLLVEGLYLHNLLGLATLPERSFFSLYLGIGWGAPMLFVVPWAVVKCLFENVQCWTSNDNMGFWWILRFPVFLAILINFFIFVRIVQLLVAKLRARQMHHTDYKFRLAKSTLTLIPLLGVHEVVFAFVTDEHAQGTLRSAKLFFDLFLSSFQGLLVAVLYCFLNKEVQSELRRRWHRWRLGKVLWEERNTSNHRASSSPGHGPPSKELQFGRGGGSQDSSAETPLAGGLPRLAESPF

As for `CCCC[C@H](NC(=O)[C@H](CC(C)C)NC(=O)[C@H](Cc1c[nH]c2ccccc12)NC(=O)[C@H](CCC(N)=O)NC(=O)[C@@H](NC(=O)[C@H](Cc1ccccc1)NC(=O)[C@H](CC(=O)O)NC(=O)[C@H](CCC(N)=O)NC(=O)[C@H](C)NC(=O)[C@H](CCCNC(=N)N)NC(=O)[C@H](CCCNC(=N)N)NC(=O)NC[C@H](C)NC(=O)[C@H](CC(=O)O)NC(=O)[C@H](CC(C)C)NC(=O)[C@H](Cc1ccc(O)cc1)NC(=O)[C@H](CCCCN)NC(=O)[C@H](CO)NC(=O)[C@H](Cc1ccc(O)cc1)NC(=O)[C@H](CC(=O)O)NC(=O)[C@H](CO)NC(=O)[C@@H](NC(=O)[C@H](Cc1ccccc1)NC(=O)[C@@H](NC(=O)CNC(=O)[C@H](CCC(N)=O)NC(=O)[C@H](CO)NC(=O)[C@@H](N)Cc1c[nH]cn1)[C@@H](C)O)[C@@H](C)O)C(C)C)C(=O)N[C@@H](CC(N)=O)C(=O)N[C@H](C(=O)O)[C@@H](C)O` [Compound 52], it took 34 nM to reach a half-maximal effect at human glucagon receptor (EC50). Moreover, in series [1], the solubility came out at 490 µg/mL (≈ 141 µM) and the “ratio (solubility relative to reference compound 16)” value amounted to 1.9.
On the same counts, the results for `CCCC[C@H](NC(=O)[C@H](CC(C)C)NC(=O)NC[C@H](Cc1c[nH]c2ccccc12)NC(=O)[C@H](CCC(N)=O)NC(=O)[C@@H](NC(=O)[C@H](Cc1ccccc1)NC(=O)[C@H](CC(=O)O)NC(=O)[C@H](CCC(N)=O)NC(=O)[C@H](C)NC(=O)[C@H](CCCNC(=N)N)NC(=O)[C@H](CCCNC(=N)N)NC(=O)[C@H](CO)NC(=O)[C@H](CC(=O)O)NC(=O)[C@H](CC(C)C)NC(=O)[C@H](Cc1ccc(O)cc1)NC(=O)[C@H](CCCCN)NC(=O)[C@H](CO)NC(=O)[C@H](Cc1ccc(O)cc1)NC(=O)[C@H](CC(=O)O)NC(=O)[C@H](CO)NC(=O)[C@@H](NC(=O)[C@H](Cc1ccccc1)NC(=O)[C@@H](NC(=O)CNC(=O)[C@H](CCC(N)=O)NC(=O)[C@H](CO)NC(=O)[C@@H](N)Cc1c[nH]cn1)[C@@H](C)O)[C@@H](C)O)C(C)C)C(=O)N[C@@H](CC(N)=O)C(=O)N[C@H](C(=O)O)[C@@H](C)O` [Compound 65] are 1.5 nM, 850 µg/mL (≈ 243 µM) and 3.4.
`CCCC[C@H](NC(=O)[C@H](CC(C)C)NC(=O)[C@H](Cc1c[nH]c2ccccc12)NC(=O)[C@H](CCC(N)=O)NC(=O)[C@@H](NC(=O)[C@H](Cc1ccccc1)NC(=O)[C@H](CC(=O)O)NC(=O)[C@H](CCC(N)=O)NC(=O)[C@H](C)NC(=O)[C@H](CCCNC(=N)N)NC(=O)[C@H](CCCNC(=N)N)NC(=O)[C@H](CO)NC(=O)[C@H](CC(=O)O)NC(=O)[C@H](CC(C)C)NC(=O)[C@H](Cc1ccc(O)cc1)NC(=O)[C@H](CCCCN)NC(=O)[C@H](CO)NC(=O)[C@H](Cc1ccc(O)cc1)NC(=O)[C@H](CC(=O)O)NC(=O)[C@H](CO)NC(=O)[C@@H](NC(=O)[C@H](Cc1ccccc1)NC(=O)[C@@H](NC(=O)CNC(=O)[C@H](CCC(N)=O)NC(=O)[C@H](CO)NC(=O)[C@@H](N)Cc1c[nH]cn1)[C@@H](C)O)[C@@H](C)O)C(C)C)C(=O)N[C@@H](C)CNC(=O)N[C@H](C(=O)O)[C@@H](C)O` [Compound 35]: the EC50 at human glucagon receptor turned out to be 0.44 nM.
With `CCCC[C@H](NC(=O)[C@H](CC(C)C)NC(=O)[C@H](Cc1c[nH]c2ccccc12)NC(=O)[C@H](CCC(N)=O)NC(=O)[C@@H](NC(=O)[C@H](Cc1ccccc1)NC(=O)[C@H](CC(=O)O)NC(=O)[C@H](CCC(N)=O)NC(=O)[C@H](C)NC(=O)[C@H](CCCNC(=N)N)NC(=O)[C@H](CCCNC(=N)N)NC(=O)[C@H](CO)NC(=O)[C@H](CC(=O)O)NC(=O)[C@H](CC(C)C)NC(=O)[C@H](Cc1ccc(O)cc1)NC(=O)NC[C@H](CCCCN)NC(=O)[C@H](CO)NC(=O)[C@H](Cc1ccc(O)cc1)NC(=O)[C@H](CC(=O)O)NC(=O)[C@H](CO)NC(=O)[C@@H](NC(=O)[C@H](Cc1ccccc1)NC(=O)[C@@H](NC(=O)CNC(=O)[C@H](CCC(N)=O)NC(=O)[C@H](CO)NC(=O)[C@@H](N)Cc1c[nH]cn1)[C@@H](C)O)[C@@H](C)O)C(C)C)C(=O)N[C@@H](CC(N)=O)C(=O)N[C@H](C(=O)O)[C@@H](C)O` [Compound 59] (I: YLDSRRAQDFVQWL[Nle]NT-OH / II: H-HSQGTFTSDYS; linker I:N-II:C via X4; C-terminus assumed), the EC50 at human glucagon receptor worked out at 32 nM. In addition, in series [1], the solubility was determined as 720 µg/mL (≈ 206 µM) and the “ratio (solubility relative to reference compound 16)” value is on record as 2.9.
On the same counts, the results for `CCCC[C@H](NC(=O)[C@H](CC(C)C)NC(=O)[C@H](Cc1c[nH]c2ccccc12)NC(=O)[C@H](CCC(N)=O)NC(=O)[C@@H](NC(=O)[C@H](Cc1ccccc1)NC(=O)[C@H](CC(=O)O)NC(=O)[C@H](CCC(N)=O)NC(=O)[C@H](C)NC(=O)[C@H](CCCNC(=N)N)NC(=O)NC[C@H](C)NC(=O)[C@H](CO)NC(=O)[C@H](CC(=O)O)NC(=O)[C@H](CC(C)C)NC(=O)[C@H](Cc1ccc(O)cc1)NC(=O)[C@H](CCCCN)NC(=O)[C@H](CO)NC(=O)[C@H](Cc1ccc(O)cc1)NC(=O)[C@H](CC(=O)O)NC(=O)[C@H](CO)NC(=O)[C@@H](NC(=O)[C@H](Cc1ccccc1)NC(=O)[C@@H](NC(=O)CNC(=O)[C@H](CCC(N)=O)NC(=O)[C@H](CO)NC(=O)[C@@H](N)Cc1c[nH]cn1)[C@@H](C)O)[C@@H](C)O)C(C)C)C(=O)N[C@@H](CC(N)=O)C(=O)N[C@H](C(=O)O)[C@@H](C)O` [Compound 53] are 0.67 nM, 580 µg/mL (≈ 170 µM) and 2.3.
On the same counts, the results for `CCCC[C@H](NC(=O)[C@H](CC(C)C)NC(=O)[C@H](Cc1c[nH]c2ccccc12)NC(=O)NC[C@H](CCC(N)=O)NC(=O)[C@@H](NC(=O)[C@H](Cc1ccccc1)NC(=O)[C@H](CC(=O)O)NC(=O)[C@H](CCC(N)=O)NC(=O)[C@H](C)NC(=O)[C@H](CCCNC(=N)N)NC(=O)[C@H](CCCNC(=N)N)NC(=O)[C@H](CO)NC(=O)[C@H](CC(=O)O)NC(=O)[C@H](CC(C)C)NC(=O)[C@H](Cc1ccc(O)cc1)NC(=O)[C@H](CCCCN)NC(=O)[C@H](CO)NC(=O)[C@H](Cc1ccc(O)cc1)NC(=O)[C@H](CC(=O)O)NC(=O)[C@H](CO)NC(=O)[C@@H](NC(=O)[C@H](Cc1ccccc1)NC(=O)[C@@H](NC(=O)CNC(=O)[C@H](CCC(N)=O)NC(=O)[C@H](CO)NC(=O)[C@@H](N)Cc1c[nH]cn1)[C@@H](C)O)[C@@H](C)O)C(C)C)C(=O)N[C@@H](CC(N)=O)C(=O)N[C@H](C(=O)O)[C@@H](C)O` [Compound 64] are 0.16 nM, 940 µg/mL (≈ 269 µM) and 3.7.
Compound `CC(C)C[C@H](NC(=O)[C@H](Cc1ccc(O)cc1)NC(=O)[C@H](CCCCN)NC(=O)[C@H](CO)NC(=O)[C@H](Cc1ccc(O)cc1)NC(=O)[C@H](CC(=O)O)NC(=O)[C@H](CO)NC(=O)[C@@H](NC(=O)[C@H](Cc1ccccc1)NC(=O)[C@@H](NC(=O)CNC(=O)[C@H](CCC(N)=O)NC(=O)[C@H](CO)NC(=O)[C@@H](N)Cc1c[nH]cn1)[C@@H](C)O)[C@@H](C)O)C(=O)N[C@@H](CC(=O)O)C(=O)N[C@@H](CO)C(=O)N[C@@H](CCCNC(=N)N)C(=O)N[C@@H](CCCNC(=N)N)C(=O)N[C@@H](C)C(=O)N[C@@H](CCC(N)=O)C(=O)N[C@@H](CC(=O)O)C(=O)N[C@@H](Cc1ccccc1)C(=O)N[C@H](C(=O)N[C@@H](CCC(N)=O)C(=O)N[C@@H](Cc1c[nH]c2ccccc12)C(=O)N[C@@H](CC(C)C)C(=O)N[C@@H](C)CNC(=O)N[C@@H](CC(N)=O)C(=O)N[C@H](C(=O)O)[C@@H](C)O)C(C)C` [Compound 34] displayed an EC50 on human glucagon receptor of 2.5 nM. Besides, in series [1], the solubility is 860 µg/mL (≈ 249 µM) and the “ratio (solubility relative to reference compound 16)” value is listed as 3.4.
As to `CCCC[C@H](NC(=O)[C@H](CC(C)C)NC(=O)[C@H](Cc1c[nH]c2ccccc12)NC(=O)[C@H](CCC(N)=O)NC(=O)[C@@H](NC(=O)[C@H](Cc1ccccc1)NC(=O)[C@H](CC(=O)O)NC(=O)[C@H](CCC(N)=O)NC(=O)[C@H](C)NC(=O)[C@H](CCCNC(=N)N)NC(=O)[C@H](CCCNC(=N)N)NC(=O)[C@H](CO)NC(=O)[C@H](CC(=O)O)NC(=O)[C@H](CC(C)C)NC(=O)[C@H](Cc1ccc(O)cc1)NC(=O)[C@H](CCCCN)NC(=O)[C@H](CO)NC(=O)[C@H](Cc1ccc(O)cc1)NC(=O)[C@H](CC(=O)O)NC(=O)[C@H](CO)NC(=O)[C@@H](NC(=O)[C@H](Cc1ccccc1)NC(=O)[C@@H](NC(=O)CNC(=O)[C@H](CCC(N)=O)NC(=O)[C@H](CO)NC(=O)[C@@H](N)Cc1c[nH]cn1)[C@@H](C)O)[C@@H](C)O)C(C)C)C(=O)N[C@@H](CC(N)=O)C(=O)N[C@@H](C)CNC(N)=O` [Compound 36], the “% bioactivity of reference, GCG-R” value at human glucagon receptor (Reference Compound 16) was 246%. This compound also had an EC50 at human glucagon receptor of 0.026 nM.

What is called EC50 is the concentration that produces a half-maximal response. A lower EC50 goes with higher potency in that assay. As usually defined, the solubility is how much of the substance goes into solution per volume. Lower therefore signals little dissolved substance.
